Key:
ABCG2/BCRP = biological target: T1, ABCG2/BCRP (Homo sapiens, UniProt Q9UNQ0); assay: ABCG2-ATPase activity in Sf9 membrane vesicles; format: biochemical; set-up: expressed in transfected cells; host or cells: PLB-985; conditions: Sf9/ABCG2 membranes
T1 sequence (Q9UNQ0 1-655): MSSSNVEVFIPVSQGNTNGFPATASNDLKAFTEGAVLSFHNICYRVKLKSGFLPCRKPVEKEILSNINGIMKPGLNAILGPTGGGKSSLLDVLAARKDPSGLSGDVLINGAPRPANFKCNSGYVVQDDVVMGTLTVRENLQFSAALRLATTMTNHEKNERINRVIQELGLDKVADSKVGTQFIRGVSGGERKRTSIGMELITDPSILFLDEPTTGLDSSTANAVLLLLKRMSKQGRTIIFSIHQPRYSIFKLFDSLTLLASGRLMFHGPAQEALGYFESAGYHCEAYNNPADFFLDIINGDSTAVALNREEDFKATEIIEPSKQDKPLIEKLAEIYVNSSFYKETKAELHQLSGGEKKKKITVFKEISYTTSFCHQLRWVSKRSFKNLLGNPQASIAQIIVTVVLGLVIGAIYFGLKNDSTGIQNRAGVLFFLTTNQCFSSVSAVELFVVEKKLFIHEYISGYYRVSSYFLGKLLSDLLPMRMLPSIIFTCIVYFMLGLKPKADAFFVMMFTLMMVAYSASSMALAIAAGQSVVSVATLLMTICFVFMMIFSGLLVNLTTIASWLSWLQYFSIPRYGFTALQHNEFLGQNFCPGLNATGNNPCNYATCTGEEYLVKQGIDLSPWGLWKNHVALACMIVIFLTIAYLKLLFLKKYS
Protocol: ABC transporter ATPase activity was measured in Sf9 membrane vesicles containing the respective human ABC transporters [46, 47, 48, 49, 50]. For ABCG2/BCRP, the cholesterol level in the vesicles was increased to the level of mammalian cell membranes for full activity [49]. For ABCB1/Pgp 20 μg/150 μL and for ABCG2/BCRP 10 μg/150 μL, vesicles were incubated with 3 mM Mg-ATP for 25 min at 37 °C. The test drugs were dissolved in DMSO and 1 µL was added to the samples. The ABC transporter-related ATPase activity was determined and reference activators (50 µM verapamil for ABCB1 and 5 µM quercetin for ABCG2) served as controls.
Drug-stimulated ATPase activity of the ABCG2 transporter was also measured in the present study.

OATP1A2 [1] = biological target: T2, OATP1A2 (Homo sapiens, UniProt P46721); assay: in vitro; conditions: A431 cells overexpressing OATP1A2, pH 7, probe sulforhodamine 101, 0.5 µM
T2 sequence (P46721 1-670): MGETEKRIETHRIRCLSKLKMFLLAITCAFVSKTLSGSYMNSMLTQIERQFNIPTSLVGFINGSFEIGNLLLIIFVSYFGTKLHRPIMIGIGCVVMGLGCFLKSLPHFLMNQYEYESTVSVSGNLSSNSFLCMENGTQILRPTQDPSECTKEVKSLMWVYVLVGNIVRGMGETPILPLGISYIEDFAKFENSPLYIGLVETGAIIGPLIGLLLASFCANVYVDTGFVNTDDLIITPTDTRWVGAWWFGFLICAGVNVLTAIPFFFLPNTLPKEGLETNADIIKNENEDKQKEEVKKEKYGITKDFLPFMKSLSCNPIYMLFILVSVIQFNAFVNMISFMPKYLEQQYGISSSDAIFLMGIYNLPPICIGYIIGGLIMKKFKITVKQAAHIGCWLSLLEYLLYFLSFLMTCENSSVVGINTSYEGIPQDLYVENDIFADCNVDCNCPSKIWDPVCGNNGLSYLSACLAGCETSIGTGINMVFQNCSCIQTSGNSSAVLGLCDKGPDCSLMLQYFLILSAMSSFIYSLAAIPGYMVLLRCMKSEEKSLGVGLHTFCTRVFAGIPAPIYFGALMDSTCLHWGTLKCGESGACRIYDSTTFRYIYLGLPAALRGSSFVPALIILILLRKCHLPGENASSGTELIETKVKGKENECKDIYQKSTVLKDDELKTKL

OATP2B1 = biological target: T3, OATP2B1 (Homo sapiens, UniProt O94956); assay: in vitro; conditions: A431 cells overexpressing OATP2B1, pH 5.5, probe pyranine, 20 µM
T3 sequence (O94956 1-709): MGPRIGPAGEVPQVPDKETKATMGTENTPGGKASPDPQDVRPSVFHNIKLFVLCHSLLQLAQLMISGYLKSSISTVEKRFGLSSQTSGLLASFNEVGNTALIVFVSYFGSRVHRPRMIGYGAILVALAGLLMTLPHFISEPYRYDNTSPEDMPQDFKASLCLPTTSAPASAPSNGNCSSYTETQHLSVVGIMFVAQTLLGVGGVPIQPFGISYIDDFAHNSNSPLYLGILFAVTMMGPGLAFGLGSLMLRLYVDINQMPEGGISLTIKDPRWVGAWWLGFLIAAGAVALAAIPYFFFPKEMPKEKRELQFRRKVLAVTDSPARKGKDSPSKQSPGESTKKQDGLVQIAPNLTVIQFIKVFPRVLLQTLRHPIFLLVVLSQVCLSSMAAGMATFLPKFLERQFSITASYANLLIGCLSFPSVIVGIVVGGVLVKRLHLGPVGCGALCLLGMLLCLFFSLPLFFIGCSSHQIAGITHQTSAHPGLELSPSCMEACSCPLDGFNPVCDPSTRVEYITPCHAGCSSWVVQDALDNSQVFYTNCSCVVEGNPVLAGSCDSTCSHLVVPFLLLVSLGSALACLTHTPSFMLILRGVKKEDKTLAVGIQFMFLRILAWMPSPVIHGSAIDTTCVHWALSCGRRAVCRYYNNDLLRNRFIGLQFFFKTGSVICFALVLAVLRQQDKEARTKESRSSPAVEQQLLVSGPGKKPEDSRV

OATP1A2 [2] = biological target: T2, OATP1A2; conditions: based on the IC50 values

CCC(CC)COC(=O)[C@H](C)N[P@](=O)(OC[C@H]1O[C@@](C#N)(c2ccc3c(N)ncnn23)[C@H](O)[C@@H]1O)Oc1ccccc1 [remdesivir]
Concentration at which baseline ABCG2-ATPase activity was inhibited (ABCG2/BCRP): 20 to 50 µmol | Effect on baseline ABCG2-ATPase activity (in words) (ABCG2/BCRP; ivermectin, ritonavir, lopinavir at low micromolar, remdesivir at higher concentrations): significantly inhibited

NC(=O)c1nc(F)c[nH]c1=O [favipiravir]
IC50 at 10 min (OATP1A2 [1]): > 50 µM | IC50 at 15 min (OATP2B1): > 50 µM

CCN(CCO)CCCC(C)Nc1ccnc2cc(Cl)ccc12 (centres unmarked) [hydroxychloroquine]
Fold lower affinity for OATP1A2 than lopinavir, ritonavir, remdesivir and ivermectin (OATP1A2 [2]): 3–10 fold

Reference: paper PMC7827085 (Pharmaceutics, 2021)
